The record followed here is patent US20240254118A1, “PRMT5 INHIBITORS AND USES THEREOF” (Gilead Sciences, Inc., priority 2022, published 2024).

SMILES strings stand for the structures. pEC50: −log10 of the molar value.

In assay [1] the test system is SDMA signal (PRMT5 inhibition) in HCT116 MTAP-deleted cells. In words: Symmetric di-methyl arginine image-based high content screen assay (SDMA assay), HCT116 MTAP-deleted. It is filed as cell-based. The conditions noted are these: SDMA assay; for pEC50: Homo sapiens, HCT-116, 72 h, 3 days of treatment, cell line not given, taken as HCT116 MTAP-deleted, read-out: EC50 (SDMA assay); for EC50 selectivity (SDMA assay): taken as HCT116 WT versus MTAP-deleted. The method, then: Symmetric di-methyl arginine image-based high content screen assay (SDMA assay) was performed in HCT116 WT and HCT116 MTAP-deleted cell lines to measure Symmetric Di-methyl Arginine (SDMA) signal reduction after selective PRMT5 inhibition in the MTAP-deleted cells.
Briefly, the same compound plates were generated as mentioned in the previous section of Cell viability assay on Day −1.
On Day 3, the cells were fixed by adding 45 μl of 8% neutralized formalin solution to each well using EL460 liquid dispenser 5 μl cassette and the cells were incubated for 30 minutes at room temperature. The formalin solution was washed off with […] phosphate buffered saline (dPBS), the 0.1% Triton X-100 solution in dPBS was used to permeabilize the cells for 15 minutes at room temperature. The triton solution was aspirated, 50 μl of Odyssey Blocking buffer+0.05% Tween20 was added and the plate was incubated at room temperature for 30 minutes.
The blocking solution was removed, a 20 μl of SDMA antibody (Cell Signaling Technology, Cat no. 13222) diluted 1:500 in Odyssey Blocking buffer+0.05% Tween20 was added and the plate was incubated at 4° C. overnight. Next day, the primary SDME antibody solution was washed from each well three times with 0.05% Tween20 in dPBS (PBST).
A 30 μl of the secondary antibody, a Goat anti-Rabbit Alexa Fluor Plus 488 (Invitrogen, Cat no. PIA32731) was diluted 1:500 in Odyssey Blocking buffer+0.05% Tween20 and the plate was incubated for 1.5 hours in dark at room temperature. The secondary antibody solution was removed, 30 μl of 5 mg/ml DAPI solution diluted 1:2000 in dPBS was added and the plate was incubated for 30 minutes in dark at room temperature. The DAPI solution was aspirated and the wells were washed six times with dPBS.
The SDMA signal and DAPI signal per cell were counted using a Cellomics CX7 LZR instrument reading under 488 and 405 nm laser, respectively. The SDMA signal was quantified by mean average intensity per cell from Alexa Fluor Plus 488 after the cell was defined with DAPI.

Assay [2] relates to HCT116 MTAP-deleted cells. In words: Cell viability assay (CellTiter-Glo, 7 days), HCT116 MTAP-deleted. The conditions noted are these: Homo sapiens, HCT-116, 168 h.

One may read the pEC50 as the negative decadic logarithm of the EC50, by convention in mol/L. As usually defined, the CC50 is the concentration that lowers cell viability or growth by half. Higher therefore signals lower toxicity to the cells. In the case of `Cn1ncc2c(N)nc3ccc(C(=O)N(Cc4ccc(C(F)(F)F)cn4)N4CC(F)(F)CCC4=O)cc3c21` [Example 13, 4-amino-N-(5,5-difluoro-2-oxo-1-piperidyl)-1-methyl-N-[[5-(trifluoromethyl)-2-pyridyl]methyl]pyrazolo[4,3-c]quinoline-8-carboxamide], in assay [1], the pEC50 was more than 9.00 and the “EC50 selectivity (SDMA assay)” value turned out to be 128. The CC50 in assay [2] was less than 100 nM.
For `CN1CCN(N(Cc2ccc(C(F)(F)F)cc2F)C(=O)c2ccc3nc(N)c4cnn(C)c4c3c2)C1=O` [Example 7, 4-amino-N-(2-fluoro-4-(trifluoromethyl)benzyl)-1-methyl-N-(3-methyl-2-oxoimidazolidin-1-yl)-1H-pyrazolo[4,3-c]quinoline-8-carboxamide], in assay [1], the negative logarithm of the EC50 (pEC50) is more than 9.00 and the “EC50 selectivity (SDMA assay)” value is 62. Further, the CC50 in assay [2] was less than 100 nM.
As to `CN(C(=O)C1(F)CC1)N(Cc1ccc(C(F)(F)F)cn1)C(=O)c1ccc2nc(N)c3cnn(C)c3c2c1` [Example 117, 4-amino-N′-(1-fluorocyclopropanecarbonyl)-N′,1-dimethyl-N-[[5-(trifluoromethyl)-2-pyridyl]methyl]pyrazolo[4,3-c]quinoline-8-carbohydrazide], in assay [1], the pEC50 was more than 9.00 and the “EC50 selectivity (SDMA assay)” value amounted to 34. In addition, the CC50 in assay [2] was less than 100 nM.
On the same counts, the results for `Cn1ncc2c(N)nc3ccc(C(=O)N(Cc4nc5ccccc5n4C)N4CCCC4=O)cc3c21` [Example 80, 4-Amino-1-methyl-N-[(1-methylbenzimidazol-2-yl)methyl]-N-(2-oxopyrrolidin-1-yl)pyrazolo[4,3-c]quinoline-8-carboxamide] are more than 9.00, 164 and less than 100 nM.
Consider `CC(=O)N(C)N(Cc1ccc(C(F)(F)F)cn1)C(=O)c1cc2c3c(c(N)nc2cc1F)[C@@H](C)OC3` [Example 167, (3R)—N′-acetyl-4-amino-7-fluoro-N′,3-dimethyl-N-[[5-(trifluoromethyl)-2-pyridyl]methyl]-1,3-dihydrofuro[3,4-c]quinoline-8-carbohydrazide], for which, in assay [1], the pEC50 was more than 9.00 and the “EC50 selectivity (SDMA assay)” value amounted to 10. This molecule yielded a CC50 in assay [2] of less than 100 nM.
The corresponding values for `CC(=O)N(C(C)C)N(Cc1ccc(C(F)(F)F)cn1)C(=O)c1ccc2nc(N)c3cnn(C)c3c2c1` [Example 203, N′-acetyl-4-amino-N′-isopropyl-1-methyl-N-[[5-(trifluoromethyl)-2-pyridyl]methyl]pyrazolo[4,3-c]quinoline-8-carbohydrazide] are 8.30 to 9.00, 159 and 100 to 1000 nM.
For `Cn1ncc2c(N)nc3ccc(C(=O)N(Cc4ccc(C(F)(F)F)cn4)N4CCOCC4=O)cc3c21` [Example 62, 4-amino-1-methyl-N-(3-oxomorpholin-4-yl)-N-[[5-(trifluoromethyl)-2-pyridyl]methyl]pyrazolo[4,3-c]quinoline-8-carboxamide], in assay [1], the pEC50 was more than 9.00 and the “EC50 selectivity (SDMA assay)” value was 94. In assay [2], this molecule showed a CC50 of less than 100 nM.
Consider `Cn1ncc2c(N)nc3ccc(C(=O)N(Cc4ccc(C(F)(F)F)cn4)N4CC5(CCC5)OC4=O)cc3c21` [Example 17, 4-amino-1-methyl-N-(6-oxo-5-oxa-7-azaspiro[3.4]octan-7-yl)-N-[[5-(trifluoromethyl)-2-pyridyl]methyl]pyrazolo[4,3-c]quinoline-8-carboxamide], for which, in assay [1], the pEC50 is more than 9.00 and the “EC50 selectivity (SDMA assay)” value worked out at 502. The molecule also registered a CC50 in assay [2] of less than 100 nM.
On the same counts, the results for `Cn1ncc2c(N)nc3ccc(C(=O)N(Cc4ccc(C(F)(F)F)cn4)N4C[C@H]5C[C@@H]4CO5)cc3c21` [Example 299, 4-amino-N-((1R,4R)-2-oxa-5-azabicyclo[2.2.1]heptan-5-yl)-1-methyl-N-((5-(trifluoromethyl)pyridin-2-yl)methyl)-1H-pyrazolo[4,3-c]quinoline-8-carboxamide] are more than 9.00, 144 and less than 100 nM.
Take `CN(C(=O)c1ncccn1)N(Cc1ccc(C(F)(F)F)cn1)C(=O)c1ccc2nc(N)c3cnn(C)c3c2c1` [Example 163, 4-amino-N′,1-dimethyl-N′-(pyrimidine-2-carbonyl)-N-((5-(trifluoromethyl)pyridin-2-yl)methyl)-1H-pyrazolo[4,3-c]quinoline-8-carbohydrazide]: in assay [1], the pEC50 is 8.30 to 9.00 and the “EC50 selectivity (SDMA assay)” value is given as 145. In addition, the CC50 in assay [2] was less than 100 nM.
`Cn1ncc2c(N)nc3cc(F)c(C(=O)N(Cc4ccc(C(F)(F)F)cn4)NC(=O)C45CC(C4)C5)cc3c21` [Example 333, 4-amino-N′-(bicyclo[1.1.1]pentane-1-carbonyl)-7-fluoro-1-methyl-N-((5-(trifluoromethyl)pyridin-2-yl)methyl)-1H-pyrazolo[4,3-c]quinoline-8-carbohydrazide]: in assay [1], the negative-log EC50 (pEC50) was more than 9.00 and the “EC50 selectivity (SDMA assay)” value is 317. The same molecule came in with a CC50 in assay [2] of less than 100 nM.
With `Cn1ncc2c(N)nc3ccc(C(=O)N(Cc4ccc(C(F)(F)F)cn4)N4CC5(CC5)CC4=O)cc3c21` [Example 170, 4-amino-1-methyl-N-(6-oxo-5-azaspiro[2.4]heptan-5-yl)-N-((5-(trifluoromethyl)pyridin-2-yl)methyl)-1H-pyrazolo[4,3-c]quinoline-8-carboxamide], in assay [1], the pEC50 was more than 9.00 and the “EC50 selectivity (SDMA assay)” value was determined as 146. The molecule further yielded a CC50 in assay [2] of less than 100 nM.
On to `CC(=O)N(C)N(Cc1ccc(C(F)(F)F)nn1)C(=O)c1ccc2nc(N)c3cnn(C)c3c2c1` [Example 61, N′-acetyl-4-amino-N′,1-dimethyl-N-((6-(trifluoromethyl)pyridazin-3-yl)methyl)-1H-pyrazolo[4,3-c]quinoline-8-carbohydrazide], for which, in assay [1], the pEC50 was 8.30 to 9.00 and the “EC50 selectivity (SDMA assay)” value stood at 124. In assay [2], the CC50 was in the range of 100 to 1000 nM.
On the same counts, the results for `Cn1ncc2c(N)nc3ccc(C(=O)N(Cc4ccc(C(F)(F)F)cn4)N4CC(C(F)(F)F)OC4=O)cc3c21` (stereo not drawn) [Example 178, 4-amino-1-methyl-N-(2-oxo-5-(trifluoromethyl)oxazolidin-3-yl)-N-((5-(trifluoromethyl)pyridin-2-yl)methyl)-1H-pyrazolo[4,3-c]quinoline-8-carboxamide] are less than 8.30, 138 and 100 to 1000 nM.
As for `CN(C(=O)C1CC1)N(Cc1nc2cc(Cl)ccc2o1)C(=O)c1ccc2nc(N)c3cnn(C)c3c2c1` [Example 259, 4-amino-N-((5-chlorobenzo[d]oxazol-2-yl)methyl)-N′-(cyclopropanecarbonyl)-N′,1-dimethyl-1H-pyrazolo[4,3-c]quinoline-8-carbohydrazide], in assay [1], the pEC50 is 8.30 to 9.00 and the “EC50 selectivity (SDMA assay)” value is recorded as 182. For the same molecule, the CC50 in assay [2] is less than 100 nM.
On the same counts, the results for `CN(C(=O)C1CC1)N(Cc1ccc(-c2cnsc2)cc1F)C(=O)c1ccc2nc(N)c3cnn(C)c3c2c1` [Example 240, 4-amino-N′-(cyclopropanecarbonyl)-N-(2-fluoro-4-(isothiazol-4-yl)benzyl)-N′,1-dimethyl-1H-pyrazolo[4,3-c]quinoline-8-carbohydrazide] are more than 9.00, 95 and less than 100 nM.
For the molecule `CC(=O)N(C)N(Cc1ccc(C(F)(F)F)cn1)C(=O)c1ccc2nc(N)c3ccccc3c2c1` [Example 68, N′-acetyl-6-amino-N′-methyl-N-[[5-(trifluoromethyl)-2-pyridyl]methyl]phenanthridine-2-carbohydrazide], in assay [1], the pEC50 was 8.30 to 9.00 and the “EC50 selectivity (SDMA assay)” value is 304. Further, the CC50 in assay [2] lay within 100 to 1000 nM.
Consider `CC(=O)N(C)N(Cc1cccc2c1OC(F)(F)O2)C(=O)c1cc2c(cc1F)nc(N)c1cnn(C)c12` [Example 301, N′-acetyl-4-amino-N-((2,2-difluorobenzo[d][1,3]dioxol-4-yl)methyl)-7-fluoro-N′,1-dimethyl-1H-pyrazolo[4,3-c]quinoline-8-carbohydrazide], for which, in assay [1], the pEC50 is more than 9.00 and the “EC50 selectivity (SDMA assay)” value was 106. Also, the CC50 in assay [2] is less than 100 nM.
In the case of `CC(=O)N(C)N(Cc1ccc(C(F)(F)F)c(F)c1)C(=O)c1ccc2nc(N)c3cnn(C)c3c2c1` [Example 351, N′-acetyl-4-amino-N-(3-fluoro-4-(trifluoromethyl)benzyl)-N′,1-dimethyl-1H-pyrazolo[4,3-c]quinoline-8-carbohydrazide], in assay [1], the pEC50 is 8.30 to 9.00 and the “EC50 selectivity (SDMA assay)” value came to 33. The molecule further yielded a CC50 in assay [2] of less than 100 nM.
